Experimental data: paper PMC9228535, “Antistaphylococcal Activities and ADME-Related Properties of Chlorinated Arylcarbamoylnaphthalenylcarbamates” (Pharmaceuticals, 2022)
≈ marks a conversion by molar mass, not a printed value. Read-outs that look alike come from different tables or passages of the source.

What was measured:
MRSA SA 3202 [1] = experiment: MBC, agar aliquot subculture method; format: cell-based; conditions: Staphylococcus aureus
Procedure: (§1) All the investigated compounds were screened for in vitro antibacterial activity against the reference and quality control strain Staphylococcus aureus ATCC 29213 and clinical isolates of methicillin-resistant S. aureus (MRSA) 63718, SA 630, and SA 3202 [14]. Activities are expressed as the minimum inhibitory concentrations (MICs), see Table 2. In addition to the MICs, the minimum bactericidal concentrations (MBCs) were also determined.
(§2) For the S. aureus and MRSA isolates, the agar aliquot subculture method was used as a test for bactericidal agents. After the MIC value determination, the inoculum was transferred to Mueller–Hinton (Oxoid) agar using a multipoint inoculator. The plates were incubated in a thermostat at 37 °C for 24 h. The lowest concentration of test compound at which ≤5 colonies were obtained was then evaluated as MBC, corresponding to a 99.9% decrease in CFU relative to the original inoculum.

MRSA SA 630 [2] = experiment: MBC, agar aliquot subculture method; format: cell-based; conditions: Staphylococcus aureus
Procedure: as §1, §2

[3] = test system: Staphylococcus aureus ATCC 29213; experiment: MBC, agar aliquot subculture method; format: cell-based; conditions: ATCC29213, SA = S. aureus ATCC 29213, read-out: MBC
Procedure: as §1, §2

MRSA 63718 [4] = experiment: MBC, agar aliquot subculture method; format: cell-based; conditions: Staphylococcus aureus
Procedure: as §1, §2

MRSA SA 3202 [5] = experiment: MIC, microtitration broth method; format: cell-based; conditions: Staphylococcus aureus
Procedure: as §1
(§3) In vitro antibacterial activity of the synthesized compounds was evaluated against representatives of multidrug-resistant bacteria, three clinical isolates of methicillin-resistant S. aureus: clinical isolate of animal origin, MRSA 63718 (Department of Infectious Diseases and Microbiology, Faculty of Veterinary Medicine, University of Veterinary Sciences Brno, Czech Republic), carrying the mecA gene; and MRSA SA 630 [46] and MRSA SA 3202 [46] (National Institute of Public Health, Prague, Czech Republic), both of human origin. Suspected colonies were confirmed by PCR; a 108bp fragment specific for S. aureus was detected. All isolates were tested for the presence of the mecA gene encoding methicillin resistance. […] Vancomycin-susceptible methicillin-susceptible S. aureus (VS-MSSA) ATCC 29213, obtained from the American Type Culture Collection, was used as the reference and quality control strain. Enterococcus faecalis ATCC 29212 was obtained from the American Type Culture Collection and used as the reference and quality control strain.
(§4) The minimum inhibitory concentrations (MICs) were evaluated by the microtitration broth method according to the CLSI [64, 65] with some modifications. The compounds were dissolved in DMSO (Sigma, St. Louis, MO, USA) to get a concentration […] and diluted in a microtitration plate in an appropriate medium, namely, Cation Adjusted Mueller–Hinton (CaMH, Oxoid, Basingstoke, UK) for staphylococci (S. aureus ATCC 29213, clinical isolates of MRSA 63718, SA 630, and SA 3202) and brain heart infusion (BHI, Oxoid) for E. faecalis ATCC 29212, to reach the final concentration of 256-0.125 µg/mL. The plate was inoculated by the tested microorganisms. The final concentration of bacterial cells was 10^5 for bacteria. Ampicillin (Sigma) was used as reference drugs. A drug-free control and a sterility control were included. The plates were incubated for 24 h at 37 °C for staphylococci and E. faecalis ATCC 29212 (stability evaluation of the carbamates, see Supplementary materials, Table S1). […] The experiments were repeated three times.

MRSA SA 630 [6] = experiment: MIC, microtitration broth method; format: cell-based; conditions: Staphylococcus aureus
Procedure: as §1, §3, §4

[7] = test system: Staphylococcus aureus ATCC 29213; experiment: MIC, microtitration broth method; format: cell-based; conditions: ATCC29213, SA = S. aureus ATCC 29213, 24 h, read-out: MIC
Procedure: as §1, §3, §4

MRSA 63718 [8] = experiment: MIC, microtitration broth method; format: cell-based; conditions: Staphylococcus aureus
Procedure: as §1, §3, §4

THP-1 cells = experiment: In vitro cytotoxicity assay (WST-1); format: cell-based; conditions: Homo sapiens; THP-1, 24 h, ± SD, n = 6; read-out: IC50
Procedure: Preliminary in vitro cytotoxicity screening of the investigated compounds was performed using human monocytic leukemia THP-1 cells, see Table 2. The ability to inhibit the human cancer cell viability (IC50) of the compounds was compared to camptothecin toxicity (0.16 ± 0.07 μM). […] However, these values are up to two orders of magnitude higher than their significant antistaphyloccocal concentrations. This fact is also taken into account in the calculated selectivity index (SI), Table 2, where for only three compounds the SI is <20, while for the rest of the agents SI is >20, and for some derivatives even 100 and more. Thus, based on all these observations, it can be concluded that all the tested derivatives can be considered as in vitro non-toxic compounds for the subsequent design of new therapeutic agents.
The human THP-1 cell line (European Collection of Cell Cultures, Salisbury, UK) was cultured in RPMI 1640 medium supplemented with 10% fetal bovine serum, 2% L-glutamine, 1% penicillin, and streptomycin at 37 °C with 5% CO2. Cells were passaged at approximately 1-week intervals. All the tested compounds were prepared and dissolved as mentioned in our previous work.

[9] = Lipophilicity determination by RP-HPLC (log k, log D); format: physicochemical; conditions: for log D6.5 / log D7.4 / log k: RP-HPLC; for log D6.5: MeOH 72%/acetate buffered saline pH 6.5; for log D7.4: MeOH 72%/acetate buffered saline pH 7.4; for log k: MeOH 72%/water 28%
Procedure: Lipophilicity was measured by reversed-phase high performance liquid chromatography (RP-HPLC) under isocratic conditions with methanol as the organic modifier in the aqueous mobile phase and the logarithm of the capacity factor k was calculated, which is used as the lipophilicity index converted to the log P scale. In addition to the log k values, the logarithm of the distribution coefficient DpH at pH 6.5 and 7.4 was determined to clarify the behavior of the compounds under physiological conditions and possible ionization. Instead of water, a buffer of suitable pH was used as part of the mobile phase. In addition to the above-mentioned experimental methods, commercially available ChemBioDraw Ultra 13.0 and ACD/Percepta ver. […] In addition to lipophilicity, other parameters discussed in Ro5, such as molecular weight, number of H-bond donors/acceptors, as well as parameters not reported in Ro5, but characterizing the physicochemical properties of the prepared molecules, such as number of rotatable bonds, were predicted using ACD/Percepta. Moreover, for each R substituent, bulkiness expressed as molar volume (MV [cm^3]), a parameter describing the tail length/branching of each carbamates, was calculated.
A HPLC separation module Agilent 1200 Series (Agilent Technologies, Santa Clara, CA, USA) equipped with a Dual Absorbance Detector (DAD SL G1315C, Agilent Technologies) was used. A chromatographic column Symmetry® C18 5 μm, 4.6 × 250 mm, Part No. W21751W016 (Waters Corp, Milford, MA, USA) was used. The HPLC separation process was monitored by ChemStation for LC 3D systems (Agilent Technologies). […] The total flow of the column was 1.0 mL/min, injection 20 μL, column temperature 40 °C, and sample temperature 10 °C. The detection wavelength of 210 nm was chosen. A KI methanolic solution was used for the determination of the dead times (tD). Retention times (tR) were measured in minutes. The capacity factors k were calculated according to the formula k = (tR − tD)/tD, where tR is the retention time of the solute, and tD is the dead time obtained using an unretained analyte. The distribution coefficients DpH were calculated according to the formula DpH = (tR − tD)/tD. Each experiment was repeated three times.

[10] = test system: Enterococcus faecalis ATCC 29212; experiment: MIC, microtitration broth method; format: cell-based; conditions: for MIC: ATCC29212, EF = Enterococcus faecalis, 24 h, read-out: MIC
Procedure: as §3, §4

Row | SMILES | MBC [3] | MIC [7] | IC50 (THP-1 cells) | log D6.5 [9] | log D7.4 [9] | log k [9] | MBC (MRSA SA 3202 [1]) | MBC (MRSA SA 630 [2]) | MBC (MRSA 63718 [4]; MRSA) | MIC [10] | MIC (MRSA SA 3202 [5]; 24 h) | MIC (MRSA SA 630 [6]; 24 h) | MIC (MRSA 63718 [8]; MRSA, 24 h) | further results
1 | CC1(C)S[C@@H]2[C@H](NC(=O)[C@H](N)c3ccccc3)C(=O)N2[C@H]1C(=O)O [APM, ampicillin, reference compound] | > 5.72 µM | 5.72 µM (≈ 2 µg/mL) |  |  |  |  |  |  |  |  |  |  |  | MBC (MRSA SA 3202 [1]; MRSA3 = SA 3202, read-out: MBC): > 45.8 µM; MBC (MRSA SA 630 [2]; MRSA2 = SA 630, read-out: MBC): > 45.8 µM; MBC (MRSA 63718 [4]; MRSA1 = MRSA 63718, read-out: MBC): > 45.8 µM; MIC (MRSA SA 3202 [5]; MRSA3 = SA 3202, 24 h, read-out: MIC): 45.8 µM (≈ 16 µg/mL); MIC (MRSA SA 630 [6]; MRSA2 = SA 630, 24 h, read-out: MIC): 45.8 µM (≈ 16 µg/mL); MIC (MRSA 63718 [8]; MRSA1 = MRSA 63718, 24 h, read-out: MIC): 45.8 µM (≈ 16 µg/mL)
2 | CC[C@@]1(O)C(=O)OCc2c1cc1n(c2=O)Cc2cc3ccccc3nc2-1 [CMT, camptothecin, reference compound] |  |  | 0.16 ± 0.07 µM |  |  |  |  |  |  |  |  |  |  | 
3 | CCCNC(=O)Oc1c(C(=O)Nc2cc(Cl)c(Cl)cc2Cl)ccc2ccccc12 [Compound 3, 2-[N-(2,4,5-Trichlorophenyl)carbamoyl]naphthalen-1-yl propyl carbamate] | 0.035 µM (≈ 0.0158 µg/mL) | 0.035 µM (≈ 0.0158 µg/mL) | 3.12 ± 0.07 µM | 0.9734 | 0.9793 | 0.9689 | 0.071 µM (≈ 0.0321 µg/mL) | 0.553 µM (≈ 0.25 µg/mL) | 0.277 µM (≈ 0.125 µg/mL) | 283 µM (≈ 128 µg/mL) | 0.071 µM (≈ 0.0321 µg/mL) | 0.553 µM (≈ 0.25 µg/mL) | 0.139 µM (≈ 0.0628 µg/mL) | 
4 | CCCCCNC(=O)Oc1c(C(=O)Nc2cc(Cl)c(Cl)cc2Cl)ccc2ccccc12 [Compound 5, 2-[N-(2,4,5-Trichlorophenyl)carbamoyl]naphthalen-1-yl pentyl carbamate] | 0.067 µM (≈ 0.0321 µg/mL) | 0.067 µM (≈ 0.0321 µg/mL) | 3.44 ± 0.04 µM | 1.3072 | 1.3168 | 1.3051 | 0.131 µM (≈ 0.0629 µg/mL) | 0.521 µM (≈ 0.25 µg/mL) | 0.261 µM (≈ 0.125 µg/mL) | 267 µM (≈ 128 µg/mL) | 0.131 µM (≈ 0.0629 µg/mL) | 0.261 µM (≈ 0.125 µg/mL) | 0.261 µM (≈ 0.125 µg/mL) | 
5 | CCCCCCNC(=O)Oc1c(C(=O)Nc2cc(Cl)c(Cl)cc2Cl)ccc2ccccc12 [Compound 6, 2-[N-(2,4,5-Trichlorophenyl)carbamoyl]naphthalen-1-yl hexyl carbamate] | 0.128 µM (≈ 0.0632 µg/mL) | 0.128 µM (≈ 0.0632 µg/mL) | 3.2 ± 0.19 µM | 1.4899 | 1.4990 | 1.4883 | 0.253 µM (≈ 0.125 µg/mL) | 0.506 µM (≈ 0.25 µg/mL) | 0.253 µM (≈ 0.125 µg/mL) | 259 µM (≈ 128 µg/mL) | 0.253 µM (≈ 0.125 µg/mL) | 0.253 µM (≈ 0.125 µg/mL) | 0.253 µM (≈ 0.125 µg/mL) | 
6 | CCCCCCCNC(=O)Oc1c(C(=O)Nc2cc(Cl)c(Cl)cc2Cl)ccc2ccccc12 [Compound 7, 2-[N-(2,4,5-Trichlorophenyl)carbamoyl]naphthalen-1-yl heptyl carbamate] | 0.124 µM (≈ 0.063 µg/mL) | 0.124 µM (≈ 0.063 µg/mL) | 3.19 ± 0.44 µM | 1.6765 | 1.6863 |  | 0.246 µM (≈ 0.125 µg/mL) | 0.492 µM (≈ 0.25 µg/mL) | 0.246 µM (≈ 0.125 µg/mL) | 63 µM (≈ 32 µg/mL) | 0.246 µM (≈ 0.125 µg/mL) | 0.246 µM (≈ 0.125 µg/mL) | 0.246 µM (≈ 0.125 µg/mL) | anti-enterococcal activity (in words) ([10]; E. faecalis ATCC 29212): moderate activity
7 | CCCCCCCCNC(=O)Oc1c(C(=O)Nc2cc(Cl)c(Cl)cc2Cl)ccc2ccccc12 [Compound 8, 2-[N-(2,4,5-Trichlorophenyl)carbamoyl]naphthalen-1-yl octyl carbamate] | 0.958 µM (≈ 0.5 µg/mL) | 0.479 µM (≈ 0.25 µg/mL) | 2.61 ± 0.32 µM | 1.8687 | 1.8785 | 1.8654 | 1.92 µM (≈ 1 µg/mL) | 1.92 µM (≈ 1 µg/mL) | 1.92 µM (≈ 1 µg/mL) | 123 µM (≈ 64.2 µg/mL) | 1.92 µM (≈ 1 µg/mL) | 0.479 µM (≈ 0.25 µg/mL) | 0.958 µM (≈ 0.5 µg/mL) | lipophilicity (experimental log k/log D, approximate) [9]: ca. 1.87
